According to patent US20100099676A1 (SHIONOGI & CO., LTD., priority 2006, published 2010):

Legend:
Assay in all cases: Enzyme inhibiting activity of MMPs, fluorogenic peptide substrate
Assay type in all cases: biochemical
MMP-9 = target: T1, MMP-9 (Homo sapiens, UniProt P14780); conditions: substrate MOCAc-Pro-Leu-Gly-Leu-A2Pr(DNP)-Ala-Arg-NH2, fluorescent intensity
T1 construct: purchased Calbiochem (EMD/MERCK Biosciences)
Method in brief: (§1)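 Recombinant human enzymes with the fluorogenic substrate MOCAc-Pro-Leu-Gly-Leu-A2Pr(DNP)-Ala-Arg-NH2. Fluorescence was read for enzyme+substrate±inhibitor and substrate±inhibitor blanks.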

MMP-2 = target: T2, MMP-2 (Homo sapiens, UniProt P08253); conditions: substrate MOCAc-Pro-Leu-Gly-Leu-A2Pr(DNP)-Ala-Arg-NH2, fluorescent intensity
T2 construct: purchased Calbiochem (EMD/MERCK Biosciences)
T2 sequence (P08253 110-660): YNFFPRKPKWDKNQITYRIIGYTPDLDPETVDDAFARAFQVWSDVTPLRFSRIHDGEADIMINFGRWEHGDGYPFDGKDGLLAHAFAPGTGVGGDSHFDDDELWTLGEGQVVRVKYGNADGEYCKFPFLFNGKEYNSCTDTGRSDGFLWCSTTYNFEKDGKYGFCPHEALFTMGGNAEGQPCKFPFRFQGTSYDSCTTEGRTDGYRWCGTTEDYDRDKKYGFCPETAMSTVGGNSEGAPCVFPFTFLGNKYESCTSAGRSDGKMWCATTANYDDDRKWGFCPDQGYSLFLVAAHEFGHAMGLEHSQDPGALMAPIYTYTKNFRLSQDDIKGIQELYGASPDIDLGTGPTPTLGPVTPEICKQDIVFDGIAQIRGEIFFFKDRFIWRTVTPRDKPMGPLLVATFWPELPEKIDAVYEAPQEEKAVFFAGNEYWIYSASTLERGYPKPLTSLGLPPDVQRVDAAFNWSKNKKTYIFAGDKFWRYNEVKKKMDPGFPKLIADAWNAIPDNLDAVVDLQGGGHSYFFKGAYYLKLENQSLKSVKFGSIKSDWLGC
Method in brief: as §1

MMP-13 = target: T3, MMP-13 (Homo sapiens, UniProt P45452); conditions: APMA-activated proenzyme; substrate MOCAc-Pro-Leu-Gly-Leu-A2Pr(DNP)-Ala-Arg-NH2, fluorescent intensity; read-out: IC50 MMP-13
T3 construct: purchased Calbiochem (EMD/MERCK Biosciences)
Method in brief: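 Pro-MMP-13 was activated with 1 mM APMA at 37° C for 2 h in 50 mM Tris-HCl pH 7.6, 0.3 M NaCl, 10 mM CaCl2, 0.005% Brij35. Activity was read by fluorescence using MOCAc-Pro-Leu-Gly-Leu-A2Pr(DNP)-Ala-Arg-NH2 substrate, with enzyme and inhibitor blank corrections. IC50 is the concentration giving 50% inhibition.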

T1 sequence (P14780 94-707): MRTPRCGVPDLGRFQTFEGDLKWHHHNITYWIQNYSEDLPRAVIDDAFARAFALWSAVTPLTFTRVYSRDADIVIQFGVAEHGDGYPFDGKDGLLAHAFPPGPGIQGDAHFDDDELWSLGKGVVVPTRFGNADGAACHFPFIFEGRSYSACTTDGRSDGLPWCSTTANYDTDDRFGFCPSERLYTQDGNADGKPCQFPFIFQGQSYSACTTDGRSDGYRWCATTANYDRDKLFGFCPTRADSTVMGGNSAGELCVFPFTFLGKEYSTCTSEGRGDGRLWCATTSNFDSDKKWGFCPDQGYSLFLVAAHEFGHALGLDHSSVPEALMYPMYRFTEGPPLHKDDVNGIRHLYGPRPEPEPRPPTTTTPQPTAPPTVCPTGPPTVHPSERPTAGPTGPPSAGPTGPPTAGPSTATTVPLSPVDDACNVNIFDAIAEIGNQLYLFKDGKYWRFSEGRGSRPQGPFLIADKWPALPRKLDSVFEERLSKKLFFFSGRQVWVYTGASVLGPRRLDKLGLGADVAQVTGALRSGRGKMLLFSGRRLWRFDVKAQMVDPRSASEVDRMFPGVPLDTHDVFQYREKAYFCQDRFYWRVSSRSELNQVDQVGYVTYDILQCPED

IC50 (MMP-9) [µM] | IC50 (MMP-2) [µM] | IC50 (MMP-13) [µM] | Structure (SMILES)
> 10 | 1 to 10 | 0.006 | C[C@@H](NS(=O)(=O)N1CCN(c2ccc(C#Cc3cc(C(=O)NCc4ccccc4)c(=O)n(C)c3)cc2)CC1)C(=O)O [III-4, (R)-2-{4-[4-(5-benzylcarbamoyl-1-methyl-6-oxo-1,6-dihydropyridin-3-ylethynyl)-phenyl]-piperazine-1-sulfonylamino}-proponic acid]
> 10 | 1 to 10 | 0.005 | C[C@@H](NS(=O)(=O)N1CCN(c2ccc(C#Cc3ccc4ccn(Cc5ccccc5)c(=O)c4c3)cc2)CC1)C(=O)O [III-5, (R)-2-{4-[4-(2-benzyl-1-oxo-1,2-dihydroisoquinolin-7-ylethynyl)-phenyl]-piperazine-1-sulfonylamino}-proponic acid]
> 10 | > 10 | 0.004 | C[C@@H](NS(=O)(=O)N1CCN(c2ccc(C#Cc3cccc(-c4ncc(-c5ccc(F)cc5)o4)c3)cc2)CC1)C(=O)O [III-12, (R)-2-[4-(4-{3-[5-(4-fluorophenyl)-oxazol-2-yl]-phenylethynyl}-phenyl)-piperazine-1-sulfonylamino]-proponic acid]
> 10 | > 10 | 0.026 | CC(=O)c1cccc2ccc(C#Cc3ccc(N4CCN(S(=O)(=O)N[C@@H](CO)C(=O)O)CC4)cc3)cc12 [III-24, (S)-2-{4-[4-(8-acetylnaphthalen-2-ylethynyl)-phenyl]-piperazine-1-sulfonylamino}-3-hydroxyproponic acid]
> 10 | > 10 | 0.019 | CC(C)[C@@H](NS(=O)(=O)N1CCN(c2ccc(C#Cc3ccc4ccn(Cc5ccccc5)c(=O)c4c3)cc2)CC1)C(=O)O [III-27, (R)-2-{4-[4-(2-benzyl1-oxo-1,2-dihydroisoquinolin-7-ylethynyl)-phenyl]-piperazine-1-sulfonylamino}-3-methylbutanoic acid]
> 10 | 1 to 10 | 0.022 | CC(C)[C@@H](NS(=O)(=O)N1CCN(c2ccc(C#Cc3cc(C(=O)NCc4ccccc4)c(=O)n(C)c3)cc2)CC1)C(=O)O [III-30, (R)-2-{4-[4-(5-benzylcarbamoyl-1-methyl-6-oxo-1,6-dihydropyridin-3-ylethynyl)-phenyl]-piperazine-1-sulfonylamino}-3-methylbutanoic acid]
> 10 | 0.1 to 1 | 0.001 | CC(C)[C@@H](NS(=O)(=O)N1CCN(c2ccc(C#Cc3ccnc(C(=O)NCc4ccc(N5CCCC5=O)cc4)c3)cc2)CC1)C(=O)O [III-37, (R)-3-methyl-2-[4-(4-{2-[4-(2-oxopyrrolidine-1-yl)-benzylcarbamoyl]-pyridin-4-ylethynyl}-phenyl)-piperazine-1-sulfonylamino]-butanoic acid]
> 10 | > 10 | 0.029 | C/C=C/c1cccc2ccc(C#Cc3ccc(N4CCN(S(=O)(=O)N[C@H](C)C(=O)O)CC4)cc3)cc12 [III-38, (R)-2-(4-{4-[((E)-8-propenyl)-naphthalen-2-ylethynyl]-phenyl}-piperazine-1-sulfonylamino)-proponic acid]
> 10 | > 10 | 0.013 | CCCCC(=O)c1cn(C)c2ccc(C#Cc3ccc(N4CCN(S(=O)(=O)N[C@H](C)C(=O)O)CC4)cc3)cc12 [III-45, (R)-2-{4-[4-(1-methyl-3-pentanoyl-1H-indol-5-ylethynyl)-phenyl]-piperazine-1-sulfonylamino}-proponic acid]
> 10 | > 10 | 0.018 | C[C@@H](NS(=O)(=O)N1CCN(c2ccc(C#Cc3ccc4c(c3)c(-c3ncco3)cn4C)cc2)CC1)C(=O)O [III-46, (R)-2-{4-[4-(1-methyl-3-oxazol-2-yl-1H-indol-5-ylethynyl)-phenyl]-piperazine-1-sulfonylamino}-proponic acid]
> 10 | > 10 | 0.021 | CC(C)[C@@H](NS(=O)(=O)N1CCN(c2ccc(C#Cc3ccc4[nH]c(=O)n(Cc5ccc(F)cc5)c(=O)c4c3)cc2)CC1)C(=O)O [III-72, (R)-2-(4-{4-[3-(4-fluorobenzyl)-2,4-dioxo-1,2,3,4-tetrahydroquinazolin-6-ylethynyl]-phenyl}-piperazine-1-sulfonylamino)-3-methylbutanoic acid]
> 10 | > 10 | 0.023 | COc1ccc(Cn2c(=O)[nH]c3ccc(C#Cc4ccc(N5CCN(S(=O)(=O)N[C@@H](C(=O)O)C(C)C)CC5)cc4)cc3c2=O)cc1 [III-73, (R)-2-(4-{4-[3-(4-methoxybenzyl)-2,4-dioxo-1,2,3,4-tetrahydroquinazolin-6-ylethynyl]-phenyl}-piperazine-1-sulfonylamino)-3-methylbutanoic acid]
> 10 | > 10 | 0.013 | COc1ccc(Cn2c(=O)c3cc(C#Cc4ccc(N5CCN(S(=O)(=O)N[C@@H](C(=O)O)C(C)C)CC5)cc4)ccc3n(C)c2=O)cc1 [III-80, (R)-2-(4-{4-[3-(4-methoxybenzyl)-1-methyl-2,4-dioxo-1,2,3,4-tetrahydroquinazolin-6-ylethynyl]-phenyl}-piperazine-1-sulfonylamino)-3-methylbutanoic acid]
> 10 | 1 to 10 | 0.009 | CCC(=O)c1cccc2ccc(C#Cc3ccc(N4CCN(S(=O)(=O)N[C@H](C)C(=O)O)CC4)cc3)cc12 [III-86, (R)-2-{4-[4-(8-propionylnaphthalen-2-ylethynyl)-phenyl]-piperazine-1-sulfonylamino}-proponic acid]

Structure (SMILES) | IC50 (MMP-9) [µM] | IC50 (MMP-2) [µM] | IC50 (MMP-13) [µM]
CC(C)[C@@H](NS(=O)(=O)N1CCN(c2ccc(C#Cc3ccc4[nH]c(=O)n(Cc5ccc(Cl)cc5)c(=O)c4c3)cc2)CC1)C(=O)O [III-6, (R)-2-(4-{4-[3-(4-chrolobenzyl)-2,4-dioxo-1,2,3,4-tetrahydroquinazolin-6-ylethynyl]-phenyl}-piperazine-1-sulfonylamino)-3-methylbutanoic acid] | > 10 | > 10 | 0.028
CC(=O)c1ccc(Cl)c2ccc(C#Cc3ccc(N4CCN(S(=O)(=O)N[C@H](C)C(=O)O)CC4)cc3)cc12 [III-10, (R)-2-{4-[4-(8-acetyl-5-chrolonaphthalen-2-ylethynyl)-phenyl]-piperazine-1-sulfonylamino}-proponic acid] | > 10 | > 10 | 0.013
CC(C)CON=Cc1cccc2ccc(C#Cc3ccc(N4CCN(S(=O)(=O)N[C@H](C)C(=O)O)CC4)cc3)cc12 [III-17, (R)-2-(4-{4-[8-(isobutoxyiminomethyl)-naphthalen-2-ylethynyl]-phenyl}-piperazine-1-sulfonylamino)-proponic acid] | > 10 | > 10 | 0.025
C[C@H](NS(=O)(=O)N1CCN(c2ccc(C#Cc3ccnc(C(=O)NCc4ccc(Cl)cc4)c3)cc2)CC1)C(=O)O [III-59, (S)-2-(4-{4-[2-(4-chrolobenzylcarbamoyl)-pyridin-4-ylethynyl]-phenyl}-piperazine-1-sulfonylamino)-proponic acid] | > 10 | > 10 | 0.006
CCC[C@H](NS(=O)(=O)N1CCN(c2ccc(C#Cc3ccnc(C(=O)NCc4ccc(Cl)cc4)c3)cc2)CC1)C(=O)O [III-60, (S)-2-(4-{4-[2-(4-chrolobenzylcarbamoyl)-pyridin-4-ylethynyl]-phenyl}-piperazine-1-sulfonylamino)-pentanoic acid] | > 10 | > 10 | 0.006
CC[C@H](NS(=O)(=O)N1CCN(c2ccc(C#Cc3ccnc(C(=O)NCc4ccc(Cl)cc4)c3)cc2)CC1)C(=O)O [III-68, (S)-2-(4-{4-[2-(4-chrolobenzylcarbamoyl)-pyridin-4-ylethynyl]-phenyl}-piperazine-1-sulfonylamino)-butanoic acid] | > 10 | > 10 | 0.005
CC(C)[C@H](NS(=O)(=O)N1CCN(c2ccc(C#Cc3ccnc(C(=O)NCc4ccc(Cl)cc4)c3)cc2)CC1)C(=O)O [III-69, (S)-2-(4-{4-[2-(4-chrolobenzylcarbamoyl)-pyridin-4-ylethynyl]-phenyl}-piperazine-1-sulfonylamino)-3-methylbutanoic acid] | > 10 | > 10 | 0.007
CC(C)[C@@H](NS(=O)(=O)N1CCN(c2ccc(C#Cc3ccnc(C(=O)NCc4cccc(Cl)c4)c3)cc2)CC1)C(=O)O [III-81, (R)-2-(4-{4-[2-(3-chrolobenzylcarbamoyl)-pyridin-4-ylethynyl]-phenyl}-piperazine-1-sulfonylamino)-3-methylbutanoic acid] | > 10 | 1 to 10 | 0.006
